From ChEMBL document CHEMBL3085759, “Structure-activity relationship (SAR) and preliminary mode of action studies of 3-substituted benzylthioquinolinium iodide as anti-opportunistic infection agents” (Eur J Med Chem, 2013)
In brackets after ≈: the same amount, converted by molar mass. Activity calls are given as the source filed them. No cut-off for these calls is given here.

What was measured:
[1] = system: Mycobacterium intracellulare; experiment: Antimicrobial activity against Mycobacterium intracellulare ATCC 23068 by Alamar blue method; type: functional, organism-based
Staphylococcus aureus [2] = experiment: Antimicrobial activity against methicillin-resistant Staphylococcus aureus ATCC 33591 by Alamar blue method; type: functional, organism-based
Staphylococcus aureus [3] = experiment: Antimicrobial activity against Staphylococcus aureus ATCC 29213 by Alamar blue method; type: functional, organism-based
Nakaseomyces glabratus = experiment: Antimicrobial activity against Candida glabrata by Alamar blue method; type: functional, organism-based
Pichia kudriavzevii = experiment: Antimicrobial activity against Candida krusei ATCC 6258 by Alamar blue method; type: functional, organism-based
Aspergillus fumigatus = experiment: Antimicrobial activity against Aspergillus fumigatus ATCC 204305 by Alamar blue method; type: functional, organism-based
Cryptococcus neoformans = experiment: Antimicrobial activity against Cryptococcus neoformans ATCC 90113 by Alamar blue method; type: functional, organism-based
Candida albicans = experiment: Antimicrobial activity against Candida albicans ATCC 90028 by Alamar blue method; type: functional, organism-based
Vero = experiment: Cytotoxicity against african green monkey Vero cells at 10 ug/ml after 48 hrs by Neutral Red dye assay; type: cell-based; details: chlorocebus sabaeus
[4] = Staphylococcus aureus, ATCC 29213
[5] = Staphylococcus aureus, ATCC 29213, read-out: IC50

Compound | IC50 [1] [µg/mL] | MBC [1] [µg/mL] | MIC [1] [µg/mL] | IC50 (Staphylococcus aureus [2]) [µg/mL] | MBC (Staphylococcus aureus [2]) [µg/mL] | MIC (Staphylococcus aureus [2]) [µg/mL] | MBC (Staphylococcus aureus [3]; [4]) [µg/mL] | MIC (Staphylococcus aureus [3]; [4]) [µg/mL] | IC50 (Nakaseomyces glabratus) [µg/mL] | MIC (Nakaseomyces glabratus) [µg/mL] | IC50 (Pichia kudriavzevii) [µg/mL] | MIC (Pichia kudriavzevii) [µg/mL] | IC50 (Aspergillus fumigatus) [µg/mL] | MFC (Aspergillus fumigatus) [µg/mL] | MIC (Aspergillus fumigatus) [µg/mL] | MFC (Cryptococcus neoformans) [µg/mL] | MIC (Cryptococcus neoformans) [µg/mL] | IC50 (Candida albicans) [µg/mL] | MFC (Candida albicans) [µg/mL] | MIC (Candida albicans) [µg/mL] | also measured
[I-].c1ccc(Oc2cc3ccccc3[n+](CCCCCC3CCCCC3)c2)cc1 | > 20 | > 20 | > 20 | > 20 | > 20 | > 20 | > 20 | > 20 | > 20 | > 20 | > 20 | > 20 | > 20 | > 20 | > 20 | > 20 | > 20 | > 20 | > 20 | > 20 | IC50 (Staphylococcus aureus [3]; [5]): 19 µg/mL; MFC (Nakaseomyces glabratus): > 20 µg/mL; MFC (Pichia kudriavzevii): > 20 µg/mL; IC50 (Cryptococcus neoformans): > 20 µg/mL
Fc1ccc(CSc2cc3ccccc3[n+](CCCCCC3CCCCC3)c2)cc1.[I-] | 6.9 | 10 | 10 | 0.34 | 2.5 | 0.63 | 2.5 | 0.63 | 1.3 | 2.5 | 0.14 | 0.63 | 5.2 | 10 | 10 | 0.63 | 0.63 | 1.9 | 5 | 5 | IC50 (Staphylococcus aureus [3]; [5]): 0.34 µg/mL; MFC (Nakaseomyces glabratus): 2.5 µg/mL; MFC (Pichia kudriavzevii): 0.63 µg/mL; Activity (Vero): Non-toxic
Brc1ccc(CSc2cc3ccccc3[n+](CCCCCC3CCCCC3)c2)cc1.[I-] | 6.1 | 10 | 10 | 0.4 | 1.3 | 0.63 | 1.3 | 0.63 | 1.6 | 5 | 0.49 | 0.63 | 2.4 | 5 | 5 | 0.63 | 0.63 | 0.5 | 2.5 | 1.3 | IC50 (Staphylococcus aureus [3]; [5]): 0.4 µg/mL; MFC (Nakaseomyces glabratus): 5 µg/mL; MFC (Pichia kudriavzevii): 0.63 µg/mL; Activity (Vero): Non-toxic; IC50 (Cryptococcus neoformans): 0.22 µg/mL
Clc1cc(Cl)cc(CSc2cc3ccccc3[n+](CCCCCC3CCCCC3)c2)c1.[I-] | 3.1 | 5 | 5 | 1.3 | 10 | 2.5 |  |  | > 20 | > 20 | 17 | > 20 | > 20 | > 20 | > 20 | 1.3 | 1.3 | 2.8 | 5 | 5 | IC50 (Staphylococcus aureus [3]): Not Active; MBC (Staphylococcus aureus [3]): inactive; MIC (Staphylococcus aureus [3]): inactive; MFC (Nakaseomyces glabratus): > 20 µg/mL; MFC (Pichia kudriavzevii): > 20 µg/mL; Activity (Vero): Non-toxic; IC50 (Cryptococcus neoformans): 0.63 µg/mL
Brc1ccccc1CSc1cc2ccccc2[n+](CCCCCC2CCCCC2)c1.[I-] | 3.5 | 5 | 5 | 0.41 | 1.3 | 0.63 | 1.3 | 0.63 | 3.4 | 10 | 0.49 | 1.3 | 9.6 | 20 | 20 | 2.5 | 1.3 | 4 | 10 | 10 | IC50 (Staphylococcus aureus [3]; [5]): 0.42 µg/mL; MFC (Nakaseomyces glabratus): 10 µg/mL; MFC (Pichia kudriavzevii): 1.3 µg/mL; Activity (Vero): Non-toxic
Ic1cc2ccccc2[n+](CCCCCC2CCCCC2)c1.[I-] | > 20 | > 20 | > 20 | > 20 | > 20 | > 20 | > 20 | > 20 | > 20 | > 20 | 1.7 | 10 | > 20 | > 20 | > 20 | 10 | 10 | > 20 | > 20 | > 20 | IC50 (Staphylococcus aureus [3]; [5]): 18 µg/mL; MFC (Nakaseomyces glabratus): > 20 µg/mL; MFC (Pichia kudriavzevii): 10 µg/mL; IC50 (Cryptococcus neoformans): 5.8 µg/mL
Cc1cc(C)c(CSc2cc3ccccc3[n+](CCCCCC3CCCCC3)c2)c(C)c1.[I-] | 2.9 | 5 | 5 | 0.23 | 0.63 | 0.63 | 1.3 | 0.63 | 1.7 | 5 | 0.44 | 0.63 | 2.3 | 5 | 5 | 0.63 | 0.63 | > 20 | > 20 | > 20 | IC50 (Staphylococcus aureus [3]; [5]): 0.34 µg/mL; MFC (Nakaseomyces glabratus): 5 µg/mL; MFC (Pichia kudriavzevii): 0.63 µg/mL; Activity (Vero): Non-toxic; IC50 (Cryptococcus neoformans): 0.32 µg/mL
Fc1cccc(CSc2cc3ccccc3[n+](CCCCCC3CCCCC3)c2)c1.[I-] | 6.5 | 10 | 10 | 0.37 | 1.3 | 0.63 | 1.3 | 0.63 | 2.6 | 5 | 0.49 | 1.3 | 5.6 | 20 | 10 | 0.63 | 0.63 | 1.8 | 5 | 5 | IC50 (Staphylococcus aureus [3]; [5]): 0.44 µg/mL; MFC (Nakaseomyces glabratus): 5 µg/mL; MFC (Pichia kudriavzevii): 1.3 µg/mL; Activity (Vero): Non-toxic
COc1cccc(CSc2cc3ccccc3[n+](CCCCCC3CCCCC3)c2)c1.[I-] | 3.7 | 5 | 5 | 0.33 | 1.3 | 0.63 | 1.3 | 0.63 | 9.7 | 20 | 0.88 | 2.5 | 10.9 | > 20 | 20 | 2.5 | 0.63 | 4.8 | 10 | 10 | IC50 (Staphylococcus aureus [3]; [5]): 0.28 µg/mL; MFC (Nakaseomyces glabratus): 20 µg/mL; MFC (Pichia kudriavzevii): 2.5 µg/mL; Activity (Vero): Non-toxic; IC50 (Cryptococcus neoformans): 0.35 µg/mL
FC(F)(F)c1ccccc1CSc1cc2ccccc2[n+](CCCCCC2CCCCC2)c1.[I-] | 3.4 | 5 | 5 | 0.22 | 1.3 | 0.63 | 1.3 | 0.31 | 2.7 | 5 | 0.43 | 1.3 | 3.7 | 10 | 5 | 1.3 | 0.63 | 0.97 | 5 | 2.5 | IC50 (Staphylococcus aureus [3]; [5]): 0.19 µg/mL; Activity (Vero): Non-toxic; IC50 (Cryptococcus neoformans): 0.42 µg/mL
COc1ccccc1CSc1cc2ccccc2[n+](CCCCCC2CCCCC2)c1.[I-] | 3 | 5 | 5 | 0.35 | 5 | 0.63 | 5 | 0.63 | 8.2 | 20 | 0.75 | 2.5 | 9.8 | > 20 | 20 | 2.5 | 0.63 | 2.8 | 5 | 5 | IC50 (Staphylococcus aureus [3]; [5]): 0.31 µg/mL; MFC (Nakaseomyces glabratus): 20 µg/mL; MFC (Pichia kudriavzevii): 2.5 µg/mL; Activity (Vero): Non-toxic; IC50 (Cryptococcus neoformans): 0.34 µg/mL
Fc1ccc(Oc2cc3ccccc3[n+](CCCCCC3CCCCC3)c2)cc1.[I-] | 20 | 20 | 20 | 14 | > 20 | > 20 | > 20 | 20 | > 20 | > 20 | > 20 | > 20 | > 20 | > 20 | > 20 | 10 | 10 | > 20 | > 20 | > 20 | IC50 (Staphylococcus aureus [3]; [5]): 14 µg/mL; MFC (Nakaseomyces glabratus): > 20 µg/mL; MFC (Pichia kudriavzevii): > 20 µg/mL; IC50 (Cryptococcus neoformans): 8.62 µg/mL
[I-].c1ccc2c(c1)cc(SC1CCCCC1)c[n+]2CCCCCC1CCCCC1 | 8.4 | 10 | 10 | 1.2 | 10 | 2.5 | 10 | 1.3 | 15 | > 20 | 0.35 | 2.5 | > 20 | > 20 | > 20 | 2.5 | 2.5 | > 20 | > 20 | > 20 | IC50 (Staphylococcus aureus [3]; [5]): 0.74 µg/mL; MFC (Nakaseomyces glabratus): > 20 µg/mL; MFC (Pichia kudriavzevii): 2.5 µg/mL; IC50 (Cryptococcus neoformans): 1.2 µg/mL
O=C(O)c1cn(C2CC2)c2cc(N3CCNCC3)c(F)cc2c1=O [CIPROFLOXACIN] | 0.005 (≈ 0.0151 µM) |  | 0.45 (≈ 1.36 µM) |  |  | 0.5 (≈ 1.51 µM) |  | 0.5 (≈ 1.51 µM) |  |  |  |  |  |  |  |  |  |  |  |  | 
[I-].c1ccc(CCSc2cc3ccccc3[n+](CCCCCC3CCCCC3)c2)cc1 | 12 |  | 20 | 1.2 | 10 | 2.5 | 10 | 1.3 | 9.5 | 20 | 0.69 | 5 | 19 | > 20 | > 20 | 1.3 | 1.3 | 3.6 | > 20 | > 20 | IC50 (Staphylococcus aureus [3]; [5]): 0.73 µg/mL; MFC (Nakaseomyces glabratus): > 20 µg/mL; MFC (Pichia kudriavzevii): 5 µg/mL; IC50 (Cryptococcus neoformans): 0.73 µg/mL
